Our source for the IC50 and inhibition values is US8575156B2, “Cyclic inhibitors of 11β-hydroxysteroid dehydrogenase 1” (Vitae Pharmaceuticals, Inc., priority 2007, dated 2013).

Read-outs that look alike come from different tables or passages of the source. A value given as a limit tells only on which side of the number the result lay.

The target in this assay is 11β-HSD1 (Homo sapiens, UniProt P28845). Kind of assay: biochemical. The settings on record: for IC50: IC50 Range, Biological Test Example 1, microsomes from CHO cells overexpressing human 11β-HSD1; for inhibition at 0.1111 µM: read-out: Average % inhibition at 111.1 nM, Biological Test Example 1, 111.1 nM compound.
11β-HSD1, sequence (P28845 whole entry): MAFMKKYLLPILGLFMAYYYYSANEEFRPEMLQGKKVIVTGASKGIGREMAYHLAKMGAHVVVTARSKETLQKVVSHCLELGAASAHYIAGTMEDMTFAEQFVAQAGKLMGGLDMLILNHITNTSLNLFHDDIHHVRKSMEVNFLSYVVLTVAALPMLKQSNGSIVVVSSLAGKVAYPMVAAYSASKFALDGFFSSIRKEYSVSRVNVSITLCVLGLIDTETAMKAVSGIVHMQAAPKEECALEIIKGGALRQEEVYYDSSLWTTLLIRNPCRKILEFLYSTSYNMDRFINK
The mark [1] stands for this setting: read-out: Average % inhibition at 100 nM, Biological Test Example 1, 100 nM.
The mark [2] stands for this setting: read-out: Average % inhibition at 100 nM, Biological Test Example 1, 100 nM compound.

`C=CCCC1(c2ccc(F)cc2)CCN([C@@H](C)c2ccc(OC(F)F)cc2)C(=O)O1` (single isomer, unassigned) [EXAMPLE 323 Isomer 1] registered an IC50 of less than 100 nM. Moreover, the inhibition at 0.1 µM (read-out: Average % inhibition at 100 nM) stood at 85.9%. In the case of `CC(O)C[C@]1(c2ccc(F)cc2)CCN([C@@H](C)c2ccc(Br)cc2)C(=O)O1` (single isomer, unassigned) [EXAMPLE 371 Isomer 1], the IC50 was less than 100 nM. The inhibition at 0.1 µM under setting [1] was 98.4%. With `CC(O)CC[C@]1(c2ccc(F)cc2)CCN([C@@H](C)c2ccc(Cl)cc2)C(=O)O1` (single isomer, unassigned) [EXAMPLE 383 Isomer 1], the IC50 was less than 100 nM. Under setting [1], the inhibition at 0.1 µM is 94.7%. In turn, `CC(O)C[C@]1(c2ccc(F)cc2)CCN([C@@H](C)c2ccc(C(F)(F)F)cc2)C(=O)O1` (single isomer, unassigned) [EXAMPLE 388 Isomer 1] yielded a 50% inhibitory concentration (IC50) of less than 100 nM. In addition, the inhibition at 0.1 µM under setting [1] is 92.8%.

Molecule `CC(O)CC[C@]1(c2ccc(F)cc2)CCN([C@@H](C)c2ccc(F)cc2)C(=O)O1` (single isomer, unassigned) [EXAMPLE 411 Isomer 1] gave a concentration for half-maximal inhibition (IC50) of less than 100 nM. Besides, under setting [1], the inhibition at 0.1 µM was found to be 88.7%.

The molecule `COc1ccc([C@H](C)N2CC[C@](C)(c3ccc(CO)cc3)OC2=O)cc1` (single isomer, unassigned) [EXAMPLE 429 Isomer 1] showed a 50% inhibitory concentration (IC50) of less than 100 nM. Also, under setting [1], the inhibition at 0.1 µM was found to be 77.9%.

For `COc1ccc([C@H](C)N2CC[C@@](C)(c3ccc(CO)cc3)OC2=O)cc1` (single isomer, unassigned) [EXAMPLE 429 Isomer 2], the IC50 is more than 100 nM. Moreover, the inhibition at 0.1 µM under setting [1] stood at 23%. The molecule `C=CC[C@@]1(c2ccc(F)cc2)CCN([C@@H](C)c2ccc(Cl)c(F)c2)C(=O)O1` (single isomer, unassigned) [EXAMPLE 497 Isomer 1] had a half-inhibitory concentration (IC50) of less than 100 nM.

In turn, `C=CC[C@]1(c2ccc(F)cc2)CCN([C@@H](C)c2ccc(Cl)c(F)c2)C(=O)O1` (single isomer, unassigned) [EXAMPLE 497 Isomer 2] had a concentration for half-maximal inhibition (IC50) of less than 100 nM.

The molecule `C=CC[C@@]1(c2ccc(F)cc2)CCN([C@H](C)c2ccc(Cl)c(F)c2)C(=O)O1` (single isomer, unassigned) [EXAMPLE 497 Isomer 3] registered a half-maximal inhibitory concentration (IC50) of more than 100 nM.

On to `C=CC[C@]1(c2ccc(F)cc2)CCN([C@H](C)c2ccc(Cl)c(F)c2)C(=O)O1` (single isomer, unassigned) [EXAMPLE 497 Isomer 4], for which the IC50 is less than 100 nM. In turn, `C[C@@H](c1ccc(Br)cc1)N1CC[C@@](CCC(N)=O)(c2ccc(F)cc2F)OC1=O` (single isomer, unassigned) [EXAMPLE 504 Isomer 1] had an IC50 of less than 100 nM. Further, the inhibition at 0.1 µM under setting [1] was 49.9%.

`C[C@@H](c1ccc(Br)cc1)N1CC[C@](CCC(N)=O)(c2ccc(F)cc2F)OC1=O` (single isomer, unassigned) [EXAMPLE 504 Isomer 2] showed an IC50 of less than 100 nM. Besides, the inhibition at 0.1 µM under setting [1] is 94.4%.

In the case of `C[C@@H](c1ccc(Br)cc1)N1CC[C@@](C)(c2ccc(F)cc2)OC1=O` (single isomer, unassigned) [EXAMPLE 518 Isomer 1], the IC50 was less than 100 nM. Moreover, the inhibition at 0.1 µM under setting [1] came out at 92.2%. For `C[C@@H](c1ccc(Br)cc1)N1CC[C@](C)(c2ccc(F)cc2)OC1=O` (single isomer, unassigned) [EXAMPLE 518 Isomer 2], in that order: less than 100 nM and 98%. In the case of `Cc1cc(-c2ccc([C@H](C)N3CCC(C)(c4ccc(F)cc4)OC3=O)cc2)ccn1` (single isomer, unassigned) [EXAMPLE 519 Isomer 1], the IC50 is less than 100 nM. As to `CC(C[C@]1(c2ccc(F)cc2)CCN([C@@H](C)c2ccc(Br)cc2)C(=O)O1)C(N)=O` (single isomer, unassigned) [EXAMPLE 523 Isomer 1], the IC50 was less than 100 nM. The inhibition at 0.1 µM under setting [1] is 94.5%. For `CC(CO)C[C@]1(c2ccc(F)cc2)CCN([C@@H](C)c2ccc(Br)cc2)C(=O)O1` (single isomer, unassigned) [EXAMPLE 577 Isomer 1], in that order: less than 100 nM and 99.5%. Turning to `CC1(c2ccccc2)CCN(c2cccc(-c3ccccc3Cl)c2)C(=O)O1` (centres unmarked) [EXAMPLE 10, 3-(2′-chlorobiphenyl-3-yl)-6-methyl-6-phenyl-1,3-oxazinan-2-one], the IC50 is less than 100 nM and the inhibition at 0.1111 µM stood at 90.5%.

With `CC1(c2ccccc2)CCN(c2cccc(-c3ccc(S(C)(=O)=O)cc3)c2)C(=O)O1` (centres unmarked) [EXAMPLE 11, 3-(4′-Methanesulfonyl-biphenyl-3-yl)-6-methyl-6-phenyl-[1,3]oxazinan-2-one], the concentration for half-maximal inhibition (IC50) fell in the range of 100 to 1000 nM and the inhibition at 0.1111 µM is 28.4%. Consider `CC1(c2ccccc2)CCN(c2cccc(-c3ccccc3C#N)c2)C(=O)O1` (centres unmarked) [EXAMPLE 12, 3′-(6-Methyl-2-oxo-6-phenyl-[1,3]oxazinan-3-yl)-biphenyl-2-carbonitrile], for which the half-maximal inhibitory concentration (IC50) was less than 100 nM and the inhibition at 0.1111 µM is 86.4%. For the molecule `CC(C)NS(=O)(=O)c1ccc(-c2cccc(N3CCC(C)(c4ccccc4)OC3=O)c2)cc1` (centres unmarked) [EXAMPLE 13, N-isopropyl-3′-(6-methyl-2-oxo-6-phenyl-1,3-oxazinan-3-yl)biphenyl-4-sulfonamide], the half-maximal inhibitory concentration (IC50) lay in the range of 100 to 1000 nM and the inhibition at 0.1111 µM was determined as 19.2%. Consider `CN(C)S(=O)(=O)c1cccc(-c2cccc(N3CCC(C)(c4ccccc4)OC3=O)c2)c1` (centres unmarked) [EXAMPLE 14, N,N-dimethyl-3′-(6-methyl-2-oxo-6-phenyl-1,3-oxazinan-3-yl)biphenyl-3-sulfonamide], for which the IC50 was 100 to 1000 nM and the inhibition at 0.1111 µM is 21.9%. Take `CC1(c2ccccc2)CCN(c2cccc(-c3ccccc3S(C)(=O)=O)c2)C(=O)O1` (centres unmarked) [EXAMPLE 15, 6-methyl-3-(2′-(methylsulfonyl)biphenyl-3-yl)-6-phenyl-1,3-oxazinan-2-one]: the IC50 lay in the range of 100 to 1000 nM and the inhibition at 0.1111 µM came out at 38.5%. For `CC1(c2ccccc2)CCN(c2cccc(-c3ccc(S(=O)(=O)N4CCCC4)cc3)c2)C(=O)O1` (centres unmarked) [EXAMPLE 16, 6-methyl-6-phenyl-3-(4′-(pyrrolidin-1-ylsulfonyl)biphenyl-3-yl)-1,3-oxazinan-2-one], in that order: 100 to 1000 nM and 35.7%. As to `CC1(c2ccccc2)CCN(c2cccc(-c3cccc(C#N)c3)c2)C(=O)O1` (centres unmarked) [EXAMPLE 17, 3′-(6-methyl-2-oxo-6-phenyl-1,3-oxazinan-3-yl)biphenyl-3-carbonitrile], the IC50 was less than 100 nM and the inhibition at 0.1111 µM was 58.8%. Regarding `COCCNC(=O)c1cccc(-c2cccc(N3CCC(C)(c4ccccc4)OC3=O)c2)c1` (centres unmarked) [EXAMPLE 18, N-(2-methoxyethyl)-3′-(6-methyl-2-oxo-6-phenyl-1,3-oxazinan-3-yl)biphenyl-3-carboxamide], the IC50 was 100 to 1000 nM and the inhibition at 0.1111 µM was found to be 7.2%. For the molecule `CC1(c2ccccc2)CCN(c2cccc(-c3ccc(CNS(C)(=O)=O)cc3)c2)C(=O)O1` (centres unmarked) [EXAMPLE 19, N-((3′-(6-methyl-2-oxo-6-phenyl-1,3-oxazinan-3-yl)biphenyl-4-yl)methyl)methanesulfonamide], the IC50 fell in the range of 100 to 1000 nM and the inhibition at 0.1111 µM stood at 24%. For `COc1ccccc1-c1cccc(N2CCC(C)(c3ccccc3)OC2=O)c1` (centres unmarked) [EXAMPLE 21, 3-(2′-methoxybiphenyl-3-yl)-6-methyl-6-phenyl-1,3-oxazinan-2-one], in that order: less than 100 nM and 76.7%. Regarding `CC1(c2ccccc2)CCN(c2cccc(-c3c(Cl)cccc3Cl)c2)C(=O)O1` (centres unmarked) [EXAMPLE 22, 3-(2′,6′-dichlorobiphenyl-3-yl)-6-methyl-6-phenyl-1,3-oxazinan-2-one], the concentration for half-maximal inhibition (IC50) was less than 100 nM and the inhibition at 0.1111 µM is 88.9%. In the case of `CC1(c2ccccc2)CCN(c2cccc(-c3cccc(Cl)c3)c2)C(=O)O1` (centres unmarked) [EXAMPLE 24, 3-(3′-chlorobiphenyl-3-yl)-6-methyl-6-phenyl-1,3-oxazinan-2-one], the 50% inhibitory concentration (IC50) is less than 100 nM and the inhibition at 0.1111 µM was determined as 86%. In addition, the inhibition at 0.1 µM under setting [2] was found to be 93.4%. As for `CC1(c2ccccc2)CCN(c2cccc(-c3cc(F)ccc3F)c2)C(=O)O1` (centres unmarked) [EXAMPLE 26, 3-(2′,5′-difluorobiphenyl-3-yl)-6-methyl-6-phenyl-1,3-oxazinan-2-one], the half-maximal inhibitory concentration (IC50) is less than 100 nM and the inhibition at 0.1111 µM was found to be 87%. Further, under setting [2], the inhibition at 0.1 µM stood at 88.2%. For the molecule `CC1(c2ccccc2)CCN(c2cccc(-c3cc(F)cc(F)c3)c2)C(=O)O1` (centres unmarked) [EXAMPLE 27, 3-(3′,5′-difluorobiphenyl-3-yl)-6-methyl-6-phenyl-1,3-oxazinan-2-one], the IC50 is less than 100 nM and the inhibition at 0.1111 µM is 67%. As to `CC1(c2ccccc2)CCN(c2cccc(-c3cccc(NS(C)(=O)=O)c3)c2)C(=O)O1` (centres unmarked) [EXAMPLE 29, N-(3′-(6-methyl-2-oxo-6-phenyl-1,3-oxazinan-3-yl)biphenyl-3-yl)methanesulfonamide], the IC50 was in the range of 100 to 1000 nM and the inhibition at 0.1111 µM is 29.8%. On to `CNS(=O)(=O)c1cccc(-c2cccc(N3CCC(C)(c4ccccc4)OC3=O)c2)c1` (centres unmarked) [EXAMPLE 30, N-methyl-3′-(6-methyl-2-oxo-6-phenyl-1,3-oxazinan-3-yl)biphenyl-3-sulfonamide], for which the 50% inhibitory concentration (IC50) was 100 to 1000 nM and the inhibition at 0.1111 µM is 23.1%. Consider `CNC(=O)c1cccc(-c2cccc(N3CCC(C)(c4ccccc4)OC3=O)c2)c1` (centres unmarked) [EXAMPLE 31, N-methyl-3′-(6-methyl-2-oxo-6-phenyl-1,3-oxazinan-3-yl)biphenyl-3-carboxamide], for which the IC50 lay in the range of 100 to 1000 nM and the inhibition at 0.1111 µM was determined as 27.5%. In the case of `CC1(c2ccccc2)CCN(c2cccc(-c3cccc(N)c3)c2)C(=O)O1` (centres unmarked) [EXAMPLE 32, 3-(3′-aminobiphenyl-3-yl)-6-methyl-6-phenyl-1,3-oxazinan-2-one], the half-inhibitory concentration (IC50) fell in the range of 100 to 1000 nM and the inhibition at 0.1111 µM came out at 46%.

In general, IC50 refers to the concentration needed to halve the response being measured. The low end stands for greater potency, the high end for weaker potency. A word on the inhibition: it is the change of the read-out against control, counted positive when it falls.
